Experimental data as given in article PMC11530130, “Peripherally restricted PICK1 inhibitor mPD5 ameliorates pain behaviors in murine inflammatory and neuropathic pain models” (JCI Insight, 2024).
Where “and” joins values, the source holds several entries; their conditions need not be identical. Equal entries are not always repeated. Entries after “also recorded” stand apart in the source; their conditions may differ. Where two headings read alike, the source gives them in different places.

Assays:
[1] = Plasma exposure after single s.c. injection, LC-MS/MS; assay type: in vivo, mouse; design: maximal plasma concentration / plasma concentration, individual mice: unit not given here
Protocol: Assessment of plasma levels and biodistribution of mPD5.
The mPD5 plasma exposure was determined by (WuXI AppTec (Shanghai, China)) and done following s.c. injection of three male C57BL/6N (vendor: VTLH) mice (7-9 weeks old, fasted) with each concentration of mPD5 (2, 10 and 50 µmol/kg) in sterile PBS. Blood samples were taken 30 min, 1 hour, 2 hours, 5 hours, and 12 hours following injection. For the repeated administration experiment, the initial s.c. injection of 10 µmol/kg was followed by 4 s.c. administrations of 2 µmol/kg with one hour between injections. Following the last injection, blood samples (0.03 mL from saphenous vein or other suitable site) were collected in EDTA- […]
K2 tubes at 5 min, 30 min, 1 hour, 5 hours, 12 hours, 24 hours, and 48 hours and centrifuged (app 4 ℃, 3200 g, 10 min) for collection of plasma. Plasma was transferred to 96 well plates and quick-frozen over dry ice and kept at -60 ℃ until LC-MS/MS analysis. For LC-MS/MS analysis plasma with 0.25% Triton X100 in 50% MeOH/water (6 µL) was quenched with 160 µL of IS1 (internal standard in MeOH (Labetalol & tolbutamide & Verapamil & dexamethasone & glyburide & Celecoxib 100 ng/mL for each)) and the mixture was vortexed for 10 min at 800 rpm and centrifuged for 15 min at 3220 × g at 4 ℃. An aliquot of 65 µL supernatant was transferred to a clean 96-well plate and centrifuged for 5 min at 3220 × g at 4 ℃, then the supernatant was directly injected for LC-MS/MS analysis. Plasma half-lives were determined from three points in the elimination phase. […]

[2] = test system: mice, spared nerve injury (SNI) model; assay type: in vivo, mouse; details: for von Frey paw withdrawal threshold, ipsilateral paw (Fig 7F): SNI mice, 10 umol/kg, individual animals
Protocol: solution (0.05 mg/kg) injected s.c. 30 min before surgery (10 μL/g). For surgery, mice were anaesthetised with ketamine (100 mg/kg, i.p.) and xylazine (10 mg/kg, i.p.) (volume 10 µL/g) with 100 μL of 1% xylocaine solution infiltrated at the site of the incision. The distal trifurcation of the sciatic nerve was identified, and the tibial and common peroneal branches were ligated with polypropylene nonabsorbable 6-0 sutures (Ethicon) and 1 mm was cut out, leaving the sural branch intact. The wound was closed with sutures, and the animals were allowed to recover and returned to their cages. Two subcutaneous injections of buprenorphine (0.05 mg/kg) were performed with an 8 to 12 hours delay decreasing pain due to the surgery […]
The remaining SNI pain experiments were performed in-house using the following procedure.
SNI surgery was performed on the left hindleg of C57BL/6J male and female mice (Janvier, France) under 2% isoflurane anaesthesia. Skin on the lateral surface was incised between hip and knee followed by lengthwise division of the biceps femoris muscle leading to exposure of the three branches of the sciatic nerve. Sural branch was left intact, while the peroneal and tibial branches were ligated with a single surgical knot and axotomized distally of the ligation.
Wounds were closed with surgical glue or medical clips and animals were monitored daily for signs of stress or discomfort, but in all cases recovered uneventfully. […]
The skin wound was closed with two medical clips (Michel Suture Clips, 7.5x1.75 mm, Angthos, 12040-01). Post-surgical analgesia included s.c. injection of 5 mg/kg carprofen (Carprosan vet, 50 mg/mL mixed 1:25 in sterile ddH2O, Dechra, Le Vet Beheer B.V., Netherlands, Batch: 050520) right after surgery and the […]
following day. […]
The test battery of the CIBP model was carried out 45 or 90 min after morphine and mPD5 administration respectively to accommodate the peak efficacy […]
Mechanically evoked pain (von Frey test).
Unless otherwise specified, von Frey occurred as described in the following. Animals were habituated to the experimental room for a minimum of 60 min before initiation of the experiment. Mechanical paw withdrawal threshold (PWT) was determined by von Frey measurements of both hind paws. Von Frey filaments ranging from 0.04 to 2 g (g = gram- […]
Filaments in ascending order were applied to the frontocentral plantar surface of the hind paws.
Mice were placed in PVC plastic boxes (11.5 cm x 14 cm) on a wire mesh and allowed minimum 20 min habituation prior of experiment initiation. Each von Frey hair was applied five times with adequate resting periods between each application and number of withdrawals recorded. The withdrawal threshold was determined as the von Frey filament eliciting at least three positive trials out of the five applications in two consecutive filaments. A positive trial was defined as sudden paw withdrawal, flinching and/or paw licking induced by the filament.
For the CIBP model, two habituation sessions were performed on separated days with mice placed in the von Frey equipment for 1-1.5 hours in the presence of the experimenter on day one and random von Frey pocking with the 0.6 g filament on day two. Von Frey monofilaments (North Coast Touch Test, North Coast Medical, Inc.) with target forces of 0.04g, 0.07g, 0.16g, […]
down method” (PWT=10Xf+kδ) starting with the 0.6 g filament. Positive response was defined as; withdrawal, shaking or grooming of paw following a 2-3 second stimulation. In case, of unclear response, stimulus was repeated after 10-15 seconds.
For the STZ model, the mechanical threshold response of the injected mice was measured with […]
injection of test compounds on day 14, mechanical threshold was measured at 1 hour, 2 hours, 4 hours and 6 hours and again on day 15. […]
Thermally evoked pain (Hargreaves test).
A baseline Hargreaves test was performed on day 0 before inflammatory pain was induced as described in section 2.13. In the Hargreaves test, the mouse was placed in a container on a glass […]

Which results are given for CCCCCCCCCCCCCC(=O)N(CCOCCOCCC(=O)N[C@@H](Cc1c[nH]cn1)C(=O)N[C@@H](Cc1c[nH]c2ccccc12)C(=O)N[C@@H](CC(C)C)C(=O)N[C@@H](CCCCN)C(=O)N[C@H](C(=O)O)C(C)C)CCOCCOCCC(=O)N[C@@H](Cc1c[nH]cn1)C(=O)N[C@@H](Cc1c[nH]c2ccccc12)C(=O)N[C@@H](CC(C)C)C(=O)N[C@@H](CCCCN)C(=O)N[C@H](C(=O)O)C(C)C [mPD5, myristoyl-NPEG4-(HWLKV)2]?
half-life ([1]; male, C57BL/6N, mouse, plasma, sc, 2 umol/kg, mice, s.c. 2 μmol/kg): 30 ± 4.2 min; half-life ([1]; male, C57BL/6N, mouse, plasma, sc, 10 umol/kg, mice, s.c. 10 μmol/kg): 35.4 ± 4.2 min; half-life ([1]; male, C57BL/6N, mouse, plasma, sc, 10 umol/kg; mice, s.c. 10 μmol/kg): 36 min; half-life ([1]; male, C57BL/6N, mouse, plasma, sc, 50 umol/kg, mice, s.c. 50 μmol/kg): 50.4 ± 1.8 min; Tmax ([1]; male, C57BL/6N, mouse, plasma, sc, 50 umol/kg; mice, s.c., all doses (2, 10, 50 μmol/kg); read-out: time of maximal plasma concentration): 1 h; maximal plasma concentration ([1]; mice, s.c. 2 μmol/kg, 1 hour): 1.4 ± 0.1; maximal plasma concentration ([1]; mice, s.c. 10 μmol/kg, 1 hour): 6.2 ± 5; maximal plasma concentration ([1]; mice, s.c. 50 μmol/kg, 1 hour): 20.2 ± 0.6; maximal dose and area under the curve vs dose ([1]; mice, s.c. 2, 10, 50 μmol/kg): scaled linearly with dose; distribution volume ([1]; mice, s.c., all concentrations): approximately 30 mL; elimination kinetics ([1]; mice, s.c., all doses): first-order kinetics; also recorded: eliminated with linear kinetics; plasma concentration, individual mice ([1]; s.c. 2µmol/kg; 0.5 h): 1295 and 1523 and 1490; plasma concentration, individual mice ([1]; s.c. 2µmol/kg; 1 h): 1326 and 1469 and 1351; plasma concentration, individual mice ([1]; s.c. 2µmol/kg; 2 h): 439 and 392 and 443; plasma concentration, individual mice ([1]; s.c. 2µmol/kg; 5 h): 8.69 and 2.25 and 8.61; plasma concentration, individual mice ([1]; s.c. 10µmol/kg; 0.5 h): 4235 and 5102 and 3488; plasma concentration, individual mice ([1]; s.c. 10µmol/kg; 1 h): 6616 and 5618 and 6285; plasma concentration, individual mice ([1]; s.c. 10µmol/kg; 2 h): 2485 and 2007 and 1777; plasma concentration, individual mice ([1]; s.c. 10µmol/kg; 5 h): 101 and 46.6 and 33.1; plasma concentration, individual mice ([1]; s.c. 50µmol/kg; 0.5 h): 12546 and 11390 and 17752; plasma concentration, individual mice ([1]; s.c. 50µmol/kg; 1 h): 20045 and 20980 and 19750; plasma concentration, individual mice ([1]; s.c. 50µmol/kg; 2 h): 14800 and 13957 and 8907; plasma concentration, individual mice ([1]; s.c. 50µmol/kg; 5 h): 1391 and 1198 and 438; plasma concentration, individual mice ([1]; s.c. 50µmol/kg; 12 h): 3.21 and 3.81 and 2.66; von Frey paw withdrawal threshold, ipsilateral paw (Fig 7F) ([2]; time point 8): 0.16 (5×) and 0.4; von Frey paw withdrawal threshold, ipsilateral paw (Fig 7F) ([2]; time point 13): 0.16 (5×) and 0.07; von Frey paw withdrawal threshold, ipsilateral paw (Fig 7F) ([2]; time point BL (baseline)): 1 (2×) and 1.4 (4×); von Frey paw withdrawal threshold, ipsilateral paw (Fig 7F) ([2]; time point D12 (before dosing)): 0.16 (5×) and 0.07; effect on mechanical hypersensitivity (PWT) ([2]; SNI, single s.c. administration, 8 hours after injection): no effect on mechanical hypersensitivity
